# Tested on: migraine and tension headaches
# Test: treatment of pain from migraine and tension headaches with Q-10 (oral capsules vs nasal formulation)
# Format: in vivo
# Conditions: oral administration of from 600 to 800 mg of Q-10 in the form of capsules
# Source text: The spray according to the invention is preferably an oral or nasal spray, so that the administration of ubiquinone Qn or ubiquinone Qn precursors can be effected on an inhalative or intranasal route. The spray according to the invention is useful, in particular, for the treatment of pain conditions as encountered in migraine and neuropathy, in neural disorders, such as depressions, psychoses, lack of concentration, and in neurodegenerative diseases, such as Alzheimer's, Parkinson's, Huntington's, multiple sclerosis and cerebral paresis. The application as an oral or nasal spray seems to accelerate the transport of ubiquinone Qn or its precursors through the blood-brain barrier. […] In principle, however, doses of as high as 1000 mg can be employed.
compound,measurement,value
"COC1=C(OC)C(=O)C(C/C=C(\C)CC/C=C(\C)CC/C=C(\C)CC/C=C(\C)CC/C=C(\C)CC/C=C(\C)CC/C=C(\C)CC/C=C(\C)CC/C=C(\C)CCC=C(C)C)=C(C)C1=O [Q-10, 2,3-dimethoxy-5-methyl-6-deca-prenyl-1,4-benzoquinone]",effect on migraine,virtually no effect

# From US20050019268A1, “Spray containing ubiquinone Qn” (MSE Pharmazeutika GmbH, priority 1999, published 2005)
